Source: ChEMBL document CHEMBL1287722, “Azaindole N-methyl hydroxamic acids as HIV-1 integrase inhibitors-II. The impact of physicochemical properties on ADME and PK” (Bioorg Med Chem Lett, 2010)
Activity calls are given as the source filed them. The rule behind the calls is not given here.

How the values were obtained:
[1] = tested on: Human immunodeficiency virus 1; assay: Antiviral activity against HIV1 RF infected in human CEM-SS cells assessed as inhibition of virus-induced cytopathic effect after 6 days by XTT assay; assay type: functional, organism-based; settings: Human immunodeficiency virus 1, RF, 144 h
[2] = molecular target: Human immunodeficiency virus type 1 integrase (Human immunodeficiency virus 1, UniProt Q7ZJM1); assay: Inhibition of HIV1 RF integrase after 50 mins by strand transfer scintillation proximity assay
Human immunodeficiency virus type 1 integrase, sequence (Q7ZJM1 whole entry): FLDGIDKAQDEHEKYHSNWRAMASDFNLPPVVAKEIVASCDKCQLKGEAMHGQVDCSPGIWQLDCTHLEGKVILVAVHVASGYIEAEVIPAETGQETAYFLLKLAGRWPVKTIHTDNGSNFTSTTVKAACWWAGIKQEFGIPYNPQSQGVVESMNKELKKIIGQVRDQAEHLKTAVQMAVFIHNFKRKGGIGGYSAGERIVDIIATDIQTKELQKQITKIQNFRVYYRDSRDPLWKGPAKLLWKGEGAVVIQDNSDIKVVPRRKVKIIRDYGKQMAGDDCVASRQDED

[3] = Metabolic stability in human hepatocyte assessed as extraction ratio at 4 hrs; assay type: ADME, cell-based; settings: hepatocytes
[4] = Cytotoxicity against human CEM-SS cells by XTT assay; assay type: cell-based
[5] = Plasma clearance in dog at 1 mg/kg, iv and 5 mg/kg, po; assay type: ADME, organism-based, Canis lupus familiaris
[6] = Oral bioavailability in dog at 1 mg/kg, iv and 5 mg/kg, po; assay type: ADME, organism-based, Canis lupus familiaris; settings: in vivo
[7] = Half life in dog at 1 mg/kg, iv and 5 mg/kg, po; assay type: ADME, organism-based, Canis lupus familiaris; settings: in vivo
[8] = Volume of distribution at steady state in dog at 1 mg/kg, iv and 5 mg/kg, po; assay type: ADME, organism-based, Canis lupus familiaris; settings: in vivo, read-out: Vdss
Cytochrome P450 2C8 = molecular target: T1, Cytochrome P450 2C8 (Homo sapiens, UniProt P10632); assay: Inhibition of CYP2C8; assay type: ADME
T1 sequence (P10632 whole entry): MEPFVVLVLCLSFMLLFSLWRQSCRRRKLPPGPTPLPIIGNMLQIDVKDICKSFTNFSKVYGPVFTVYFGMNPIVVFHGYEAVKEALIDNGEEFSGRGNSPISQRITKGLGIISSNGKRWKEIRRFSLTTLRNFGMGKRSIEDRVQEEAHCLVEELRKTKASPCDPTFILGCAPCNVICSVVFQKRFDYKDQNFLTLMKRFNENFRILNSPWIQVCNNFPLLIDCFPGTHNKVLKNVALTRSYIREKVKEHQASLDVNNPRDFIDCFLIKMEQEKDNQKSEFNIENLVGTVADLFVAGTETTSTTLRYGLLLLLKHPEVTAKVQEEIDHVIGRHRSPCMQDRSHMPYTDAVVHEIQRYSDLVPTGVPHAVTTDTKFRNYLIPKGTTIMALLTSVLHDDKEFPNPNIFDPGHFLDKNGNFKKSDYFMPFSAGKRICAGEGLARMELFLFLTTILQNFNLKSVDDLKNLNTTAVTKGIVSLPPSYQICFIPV

[9] = Oral bioavailability in human; assay type: ADME, organism-based; settings: in vivo
[10] = Volume of distribution at steady state in human; assay type: ADME, organism-based; settings: in vivo, read-out: Vdss
[11] = molecular target: Voltage-gated inwardly rectifying potassium channel KCNH2 (Homo sapiens, UniProt Q12809); assay: Inhibition of human ERG
Voltage-gated inwardly rectifying potassium channel KCNH2, sequence (Q12809 whole entry): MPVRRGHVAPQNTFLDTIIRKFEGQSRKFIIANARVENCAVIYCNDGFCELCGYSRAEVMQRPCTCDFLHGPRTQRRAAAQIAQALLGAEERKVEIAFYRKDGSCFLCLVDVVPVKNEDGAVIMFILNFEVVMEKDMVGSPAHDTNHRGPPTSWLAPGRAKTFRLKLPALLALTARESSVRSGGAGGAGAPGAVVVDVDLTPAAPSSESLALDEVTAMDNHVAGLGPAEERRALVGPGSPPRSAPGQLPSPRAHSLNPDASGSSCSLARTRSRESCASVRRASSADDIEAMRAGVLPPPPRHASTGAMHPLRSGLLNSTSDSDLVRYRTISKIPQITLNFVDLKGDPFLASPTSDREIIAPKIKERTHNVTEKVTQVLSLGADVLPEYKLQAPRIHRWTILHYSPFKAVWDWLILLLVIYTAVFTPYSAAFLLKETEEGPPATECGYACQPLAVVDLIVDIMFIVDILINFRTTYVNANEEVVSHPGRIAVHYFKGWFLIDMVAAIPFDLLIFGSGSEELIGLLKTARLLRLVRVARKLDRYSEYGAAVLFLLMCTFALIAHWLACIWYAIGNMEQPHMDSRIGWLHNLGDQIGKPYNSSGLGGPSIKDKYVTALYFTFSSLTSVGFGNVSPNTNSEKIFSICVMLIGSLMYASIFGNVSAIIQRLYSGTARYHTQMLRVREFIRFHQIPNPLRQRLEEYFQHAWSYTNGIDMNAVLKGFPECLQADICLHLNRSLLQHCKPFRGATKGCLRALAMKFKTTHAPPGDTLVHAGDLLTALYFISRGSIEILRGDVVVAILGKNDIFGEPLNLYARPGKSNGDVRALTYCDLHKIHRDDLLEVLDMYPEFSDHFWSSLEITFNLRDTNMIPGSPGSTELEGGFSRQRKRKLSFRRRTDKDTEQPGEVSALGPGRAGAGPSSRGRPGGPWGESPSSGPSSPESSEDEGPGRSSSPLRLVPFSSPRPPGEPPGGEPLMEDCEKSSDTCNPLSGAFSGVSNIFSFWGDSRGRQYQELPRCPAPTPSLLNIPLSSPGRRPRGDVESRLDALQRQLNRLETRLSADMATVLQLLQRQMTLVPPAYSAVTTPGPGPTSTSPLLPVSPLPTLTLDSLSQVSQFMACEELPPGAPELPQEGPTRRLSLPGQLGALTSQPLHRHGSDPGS

Cytochrome P450 2C9 = Cytochrome P450 2C9 (Homo sapiens, UniProt P11712); assay: Inhibition of CYP2C9; assay type: ADME
Cytochrome P450 2C9, sequence (P11712 whole entry): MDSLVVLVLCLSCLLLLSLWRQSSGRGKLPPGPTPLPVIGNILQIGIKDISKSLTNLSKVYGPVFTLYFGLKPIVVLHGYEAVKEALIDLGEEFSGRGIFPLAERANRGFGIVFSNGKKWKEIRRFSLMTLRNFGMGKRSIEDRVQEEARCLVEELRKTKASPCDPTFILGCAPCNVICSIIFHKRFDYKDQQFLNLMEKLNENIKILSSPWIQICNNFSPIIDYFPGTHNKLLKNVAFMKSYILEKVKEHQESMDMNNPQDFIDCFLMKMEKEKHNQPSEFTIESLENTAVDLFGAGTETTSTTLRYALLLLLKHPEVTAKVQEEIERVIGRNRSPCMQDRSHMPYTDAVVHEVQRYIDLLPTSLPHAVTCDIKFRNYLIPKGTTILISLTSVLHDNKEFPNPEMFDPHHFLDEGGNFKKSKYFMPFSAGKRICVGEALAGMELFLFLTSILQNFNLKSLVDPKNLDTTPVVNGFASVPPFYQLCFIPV

Cytochrome P450 1A2 = molecular target: T2, Cytochrome P450 1A2 (Homo sapiens, UniProt P05177); assay: Inhibition of CYP1A2; assay type: ADME
T2 sequence (P05177 whole entry): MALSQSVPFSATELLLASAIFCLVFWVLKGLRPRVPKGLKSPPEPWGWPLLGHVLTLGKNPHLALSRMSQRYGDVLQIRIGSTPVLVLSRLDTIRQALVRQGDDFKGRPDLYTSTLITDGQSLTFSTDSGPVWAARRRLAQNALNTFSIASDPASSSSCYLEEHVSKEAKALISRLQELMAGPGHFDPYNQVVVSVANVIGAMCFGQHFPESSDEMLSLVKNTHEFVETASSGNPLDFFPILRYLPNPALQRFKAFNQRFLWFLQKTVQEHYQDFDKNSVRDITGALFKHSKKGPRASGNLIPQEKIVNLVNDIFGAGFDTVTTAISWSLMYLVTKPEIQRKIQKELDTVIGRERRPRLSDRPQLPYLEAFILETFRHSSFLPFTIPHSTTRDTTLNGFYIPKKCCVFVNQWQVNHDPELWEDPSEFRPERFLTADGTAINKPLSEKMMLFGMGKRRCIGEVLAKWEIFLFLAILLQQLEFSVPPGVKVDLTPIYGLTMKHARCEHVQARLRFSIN

Cytochrome P450 3A4 = Cytochrome P450 3A4 (Homo sapiens, UniProt P08684); assay: Inhibition of CYP3A4; assay type: ADME
Cytochrome P450 3A4, sequence (P08684 whole entry): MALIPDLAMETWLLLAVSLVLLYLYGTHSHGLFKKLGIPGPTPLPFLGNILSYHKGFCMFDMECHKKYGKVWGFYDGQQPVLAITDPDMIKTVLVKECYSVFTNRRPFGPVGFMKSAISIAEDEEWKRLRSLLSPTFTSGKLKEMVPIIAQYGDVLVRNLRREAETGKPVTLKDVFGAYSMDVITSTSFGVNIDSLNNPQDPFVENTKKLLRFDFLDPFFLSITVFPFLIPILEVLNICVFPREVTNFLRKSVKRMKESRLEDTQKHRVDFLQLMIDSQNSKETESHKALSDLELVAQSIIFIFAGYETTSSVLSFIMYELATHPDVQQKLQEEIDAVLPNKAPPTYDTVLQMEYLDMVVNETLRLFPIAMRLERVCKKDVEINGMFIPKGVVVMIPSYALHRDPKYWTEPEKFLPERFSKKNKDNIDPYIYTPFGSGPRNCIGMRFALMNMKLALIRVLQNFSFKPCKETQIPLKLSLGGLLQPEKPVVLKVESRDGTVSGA

[12] = Inhibition of matrix metalloprotease
[13] = Blood clearance in human; assay type: ADME, organism-based; settings: whole blood
[14] = Inhibition of magnesium dependent protein kinase
Cytochrome P450 2D6 = Cytochrome P450 2D6 (Homo sapiens, UniProt P10635); assay: Inhibition of CYP2D6; assay type: ADME
Cytochrome P450 2D6, sequence (P10635 whole entry): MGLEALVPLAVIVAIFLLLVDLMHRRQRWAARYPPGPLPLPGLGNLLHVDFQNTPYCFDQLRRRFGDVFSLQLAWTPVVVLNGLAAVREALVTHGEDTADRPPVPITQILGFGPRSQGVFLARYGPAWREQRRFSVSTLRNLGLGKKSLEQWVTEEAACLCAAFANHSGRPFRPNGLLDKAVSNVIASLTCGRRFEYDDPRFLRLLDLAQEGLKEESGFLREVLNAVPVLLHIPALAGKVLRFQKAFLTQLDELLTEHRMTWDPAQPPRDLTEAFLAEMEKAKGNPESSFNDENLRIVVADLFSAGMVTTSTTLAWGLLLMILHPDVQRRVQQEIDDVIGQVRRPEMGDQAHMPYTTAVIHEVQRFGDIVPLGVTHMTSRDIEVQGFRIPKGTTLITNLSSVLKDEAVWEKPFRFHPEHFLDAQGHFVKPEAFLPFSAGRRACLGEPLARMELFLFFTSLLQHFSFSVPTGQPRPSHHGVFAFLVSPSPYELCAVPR

Cytochrome P450 2C19 = Cytochrome P450 2C19 (Homo sapiens, UniProt P33261); assay: Inhibition of CYP2C19; assay type: ADME
Cytochrome P450 2C19, sequence (P33261 whole entry): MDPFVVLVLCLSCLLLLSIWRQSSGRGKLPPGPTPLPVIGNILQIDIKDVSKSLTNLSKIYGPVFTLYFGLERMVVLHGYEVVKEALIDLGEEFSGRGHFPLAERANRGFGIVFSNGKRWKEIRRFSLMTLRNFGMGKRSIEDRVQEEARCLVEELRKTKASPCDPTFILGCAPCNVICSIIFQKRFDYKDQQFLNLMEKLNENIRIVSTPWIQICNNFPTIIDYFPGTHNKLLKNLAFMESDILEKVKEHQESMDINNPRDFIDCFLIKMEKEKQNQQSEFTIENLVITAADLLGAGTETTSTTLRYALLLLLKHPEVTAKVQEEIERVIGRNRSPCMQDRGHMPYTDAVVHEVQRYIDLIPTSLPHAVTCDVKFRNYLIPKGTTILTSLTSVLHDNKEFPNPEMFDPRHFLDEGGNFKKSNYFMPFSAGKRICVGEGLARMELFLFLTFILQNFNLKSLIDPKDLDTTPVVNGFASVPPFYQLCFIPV

Hepacivirus hominis = assay: Inhibition of HCV RNA-directed RNA polymerase

| Compound | IC50 [2] | hepatic extraction ratio at 4 h [3] | EC50 [1] | CC50 [4] | other results |
| --- | --- | --- | --- | --- | --- |
| CN(O)C(=O)c1cc2c(CN3CCNC(=O)C3)cn(Cc3ccc(F)cc3)c2cn1 | 388 nM | 0.3 | 150 nM | > 100000 nM | clearance [5]: 24 mL/min/kg; bioavailability [6]: 20%; half-life [7]: 1.27 h; Vd [8]: 1.8 L/kg |
| CN(O)C(=O)c1cc2ccn(Cc3ccc(F)cc3F)c2cn1 | 250 nM | – | 39 nM | 200000 nM | – |
| CN(O)C(=O)c1cc2c(CN3CCC[C@@H]3C(N)=O)cn(Cc3ccc(F)cc3)c2cn1 | – | – | 80 nM | > 100000 nM | – |
| CCOCCOCc1cn(Cc2ccc(F)cc2)c2cnc(C(=O)N(C)O)cc12 | 308 nM | 0.57 | 57 nM | 81000 nM | – |
| CN(O)C(=O)c1cc2c(CN3CCC[C@H]3C(N)=O)cn(Cc3ccc(F)cc3)c2cn1 | – | – | – | 216000 nM | IC50 (Cytochrome P450 2C8): > 30000 nM; clearance [5]: 15 mL/min/kg; bioavailability [9]: 41%; Vd [10]: 2.15 L/kg; IC50 [11]: > 30000 nM; IC50 (Cytochrome P450 2C9): > 30000 nM; IC50 (Cytochrome P450 1A2): > 30000 nM; bioavailability [6]: 53%; IC50 (Cytochrome P450 3A4): > 30000 nM; IC50 [12]: > 50000 nM; clearance [13]: 5.5 mL/min/kg; IC50 [14]: > 1000 nM; IC50 (Cytochrome P450 2D6): > 30000 nM; IC50 (Cytochrome P450 2C19): > 30000 nM; half-life [7]: 6.2 h; Vd [8]: 2.32 L/kg; inhibition (Hepacivirus hominis): inactive |
| CN(O)C(=O)c1cc2ccn(Cc3ccc(F)cc3)c2cn1 | 250 nM | – | – | 135000 nM | – |
| COCCOCCCc1cn(Cc2ccc(F)cc2)c2cnc(C(=O)N(C)O)cc12 | 552 nM | 0.97 | 220 nM | > 10000 nM | – |
| CN(O)C(=O)c1cc2c(COC3CCOCC3)cn(Cc3ccc(F)cc3)c2cn1 | 313 nM | 0.86 | 57 nM | > 100000 nM | – |
| CN(O)C(=O)c1cc2c(C(=O)N3CCC[C@@H]3CO)cn(Cc3ccc(F)cc3)c2cn1 | 319 nM | 0.2 | 170 nM | > 32000 nM | – |
| CC(C)NC(=O)c1cn(Cc2ccc(F)cc2)c2cnc(C(=O)N(C)O)cc12 | 251 nM | 0.25 | 110 nM | > 100000 nM | – |
| CN(O)C(=O)c1cc2c(C(=O)NCCN3CCOCC3)cn(Cc3ccc(F)cc3)c2cn1 | 503 nM | 0.25 | 210 nM | 32000 nM | – |

Further lines, with some results ahead:

| IC50 [2] | hepatic extraction ratio at 4 h [3] | Compound | EC50 [1] | CC50 [4] | other results |
| --- | --- | --- | --- | --- | --- |
| 382 nM | 0.51 | COCCOCc1cn(Cc2ccc(F)cc2)c2cnc(C(=O)N(C)O)cc12 | 29 nM | > 100000 nM | – |
| 534 nM | 0.55 | CN1CCN(Cc2cn(Cc3ccc(F)cc3)c3cnc(C(=O)N(C)O)cc23)CC1 | 220 nM | > 224000 nM | – |
| 559 nM | 0.98 | CN(O)C(=O)c1cc2c(CCCN3CCOCC3)cn(Cc3ccc(F)cc3)c2cn1 | 470 nM | > 10000 nM | – |
| 242 nM | 1 | COCc1cn(Cc2ccc(F)cc2)c2cnc(C(=O)N(C)O)cc12 | 41 nM | 266000 nM | – |
| 1420 nM | 0.55 | CN(O)C(=O)c1cc2c(CN3CCC(O)C3)cn(Cc3ccc(F)cc3)c2cn1 (stereo not given) | 747 nM | > 100000 nM | – |
| 340 nM | 1 | CN(O)C(=O)c1cc2c(CCCO)cn(Cc3ccc(F)cc3)c2cn1 | 41 nM | > 10000 nM | – |
| 145 nM | 1 | CN(O)C(=O)c1cc2c(CO)cn(Cc3ccc(F)cc3)c2cn1 | 54 nM | > 266000 nM | – |
